According to ChEMBL document CHEMBL1629644, “Theileria apicoplast as a target for chemotherapy” (Antimicrob Agents Chemother, 2009):

Experiments:
[1] = Antiproliferative activity against Theileria parva-induced proliferation of bovine BL3 cells assessed as inhibition of [3H]thymidine uptake after 32 hrs; format: functional, Bos taurus
[2] = Induction of apoptosis in bovine BL3 cells assessed as late apoptotic cells after 24 hrs by annexin V/propidium iodide staining-based FACS analysis; format: functional, Bos taurus; set-up: concentration or dose not given beside the values
[3] = Antiproliferative activity against Theileria parva-induced proliferation of bovine B lymphocyte assessed as inhibition of [3H]thymidine uptake after 48 hrs; format: functional; conditions: Bos taurus, B-cell
[4] = Induction of apoptosis in bovine BL3 cells assessed as early apoptotic cells after 24 hrs by annexin V/propidium iodide staining-based FACS analysis; format: functional, Bos taurus; set-up: concentration or dose not given beside the values
[5] = Induction of apoptosis in bovine BL3 cells assessed as necrotic after 24 hrs by annexin V/propidium iodide staining-based FACS analysis; format: functional, Bos taurus; set-up: concentration or dose not given beside the values
[6] = Induction of apoptosis in bovine BL3 cells assessed as viable cells after 24 hrs by annexin V/propidium iodide staining-based FACS analysis; format: functional, Bos taurus; set-up: concentration or dose not given beside the values

SMILES: Oc1cc(Cl)ccc1Oc1ccc(Cl)cc1Cl [TRICLOSAN]
- inhibition (INH) [1]: >75%
- Activity [2]: 9.98%
- IC50 [3]: 20 µM
- Activity [4]: 44.02%
- Activity [5]: 0.13%
- Activity [6]: 45.87%

SMILES: CC(Oc1ccc(Oc2nc3ccc(Cl)cc3o2)cc1)C(=O)O (stereo not drawn) [FENOXAPROP]
- inhibition (INH) [1]: >75%
- Activity [2]: 0.06%
- IC50 [3]: 262 µM
- Activity [4]: 15.98%
- Activity [5]: 0.18%
- Activity [6]: 83.78%

SMILES: CCC[C@@H]1C[C@@H](C(=O)N[C@@H]([C@H]2O[C@H](SC)[C@H](O)[C@@H](O)[C@H]2O)[C@H](C)Cl)N(C)C1 [CLINDAMYCIN]
- inhibition (INH) [1]: 28%
- Activity [2]: 0%
- IC50 [3]: > 400 µM
- Activity [4]: 7.36%
- Activity [5]: 0%
- Activity [6]: 92.64%

SMILES: O=C(O)c1cn(C2CC2)c2cc(N3CCNCC3)c(F)cc2c1=O [CIPROFLOXACIN]
- Activity [2]: 0.25%
- IC50 [3]: 123 µM
- Activity [4]: 1.03%
- Activity [5]: 0.03%
- Activity [6]: 98.63%

SMILES: CO[C@H]1/C=C/O[C@@]2(C)Oc3c(C)c(O)c4c(O)c(c(/C=N/N5CCN(C)CC5)c(O)c4c3C2=O)NC(=O)/C(C)=C\C=C\[C@H](C)[C@H](O)[C@@H](C)[C@@H](O)[C@@H](C)[C@H](OC(C)=O)[C@@H]1C [RIFAMPIN]
- inhibition (INH) [1]: >75%
- Activity [2]: 0%
- IC50 [3]: 96 µM
- Activity [4]: 2.43%
- Activity [5]: 0%
- Activity [6]: 97.57%

SMILES: CN[C@@H]1C[C@H]2O[C@@](C)([C@@H]1OC)n1c3ccccc3c3c4c(c5c6ccccc6n2c5c31)C(=O)NC4 [STAUROSPORINE]
- Activity [2]: 14.54%
- Activity [4]: 23.83%
- Activity [5]: 0.08%
- Activity [6]: 61.57%
